Assay results published in US4752614A, “Pharmaceutical compositions of tellerium and selenium compounds for the induction of in vivo and in vitro production of cytokines” (Bar-Ilan University, priority 1987, dated 1988).
Values joined by “and” are separate entries in the source; they are usually repeats but may differ in a detail not shown here. Identical values can stand only once. Like-named read-outs stand apart in the source and are kept apart here.

Assays:
IL-2 [1] = experiment: IL-2 secretion by mouse spleen cells in vitro, CTLD proliferation (Example 17); type: cell-based, male Balb/c mice; settings: 24 hours, 1 μg/ml of cell mixture
Description: The compounds listed below were tested in vitro at various concentrations that ranged from 10 μg/ml cells to 1×10^-6 μg/ml of cell mixtures. Cells were obtained from spleens of male Balb/c mice 6-8 weeks of age. Spleens were pushed through a stainless steel 60 mesh strainer to separate cells.

IL-2 [2] = experiment: In vitro induction of IL-2 from mouse spleen cells (Example 7); type: cell-based, male Balb-c mice
Description: (§1) This example describes the in vitro making of IL-2 and CSF from mouse spleen cells using the compound of Example 1 as the extrinsic stimulating agent.
(§2) Spleens were removed from 15, male Balb-c mice 6 to 8 weeks of age. The spleen cells were pushed through stainless steel 60 mesh (U.S. standard) nets resting in 5 mm Petri dishes containing PBS in order to separate the cells. The cells were then collected into centrifuge tubes and spun at 1000 rpm for 10 minutes. The supernatant was discarded and cells were treated with 5 ml of hypotonic buffer (0.15M NH4 Cl; 0.01M KHCO3 dissolved in double distilled water, pH 7.2) for exactly two minutes. Thereafter, PBS was added to the cells and the test tubes were centrifuged for 10 minutes at 1000 rpm. The cells were rinsed twice and counted in a heamocytometer using trypan blue to test for viability. The cells were brought to a concentration of 10^7 viable cells/ml. The cells were contacted with varying amounts of the compound of Example 1 in 1 ml of 40% DMSO 60% PBS.

[3] = Dissolution in aqueous vehicles; type: physicochemical; settings: organic solvent or mixture, read-out: solubility (will dissolve)
From the text: The invention also contemplates a method for dissolving the compounds of the invention in an aqueous vehicle. This method comprises the use of ultrasound or mechanical agitation for an extended period of time which will dissolve the compound. Generally ultrasound is produced by a transformer which transforms 50/60 hertz, line voltage AC into high frequency electrical energy which is coupled to a transducer. By using piezoelectric ceramics, electrical frequency is converted into mechanical vibration. Typical amplitudes of 0.0003 for 40 k Hz equipment and 0.00007 to 0.001 for 20 k Hz equipment are useful. The transducer may be provided with a booster that is connected to a horn that has means for conducting the ultrasound to a container that holds the liquid for dissolving the compounds of the invention. Useful devices include small scale ultrasonic cleaners such as the Bronson instrument. […] The time required for this is usually 3 hours to 24 hours. High speed mechanical shakers such as a Tutenhauer shaker or waring blenders may be used for this purpose. The use of an electically operated agitator will cause the compounds to form a solution or dispersion after about 3 to 4 hours of agitation.
Using stirring 5.0 mg of the compound of Example 1 is dissolved under sterile conditions in 20 ml of glycerol. Thereafter 80 ml of PBS is added to form a solution containing 10 μg/0.2 ml.
It has been determined that the compound of Example 1 will dissolve as follows: […]

human mononuclear cells = experiment: Proliferation of human mononuclear cells (Example 19); type: cell-based
Description: Human mononuclear cells were obtained by layering heparinized blood over a Ficoll/Hypaque gradient. The mononuclear cells were resuspended in enriched RPMI, rinsed three times and brought to a concentrations of 5×10^5 cells/ml encriched RPMI. […] Aliquots of 0.2 ml of each sample were placed in wells of microplates (triplicates). Microplates were incubated for 72 hours at 37° C. after which they were labelled with H^3 methyl-thymidine 1 μCi/well for an additional 24 hours. Cells were then harvested with a cell harvester.

WNV = WNV yield in mouse macrophage cultures (Example 23); type: cell-based, ICR mouse macrophage; settings: 72 h; for Virus Yield: preliminary
Description: Varying amounts of the compound of Example 1 (5 μg, 1 μg, 0.1 μg) were incubated with a monolayer of mouse macrophages for 24 h. […] All cultures were then infected with 10^4 PFU/plate. After 72 h incubation the supernatants were collected and the virus was titrated against Vera cells.

CSF = experiment: In vitro induction of colony stimulating factor (CSF) from mouse spleen cells (Example 7); type: cell-based, male Balb-c mice
Description: as §1, §2

fibrosarcoma cells = experiment: Survival of mice with methylcholanthrene induced fibrosarcoma (Example 6); type: in vivo, Balb-c mice; design: mortality: concentration or dose not given beside the values
Description: A solution of 0.2% of methylcholanthrene (MCA, Sigma, USA) was prepared by dissolving 2 mg of the carcinogen in 1.0 ml of olive oil (Ref: Petra, et al., Cancer 19:302, 1961) with continuous shaking at 37° C. for 30 minutes. Six to eight week old C3 Heb mice were injected with 0.6 mg MCA/0.3 ml of solvent/mouse subcutaneously in the rear right thigh. After 21-30 days the induced tumor was surgically removed and pushed through 60 mesh stainless nets to obtain isolated cells. These cells were then further injected subcuteneously into the rear right thigh of C3 Heb mice 5 to 8 weeks of age, at a concentration of 10^6 cells/0.3 ml PBS/mouse/hypodermic needle 25 gauge, 5/8" to further induce tumor formation.
Balb-c mice, age 7 weeks were injected with methylcholanthrene to induce the formation of fibrosarcoma cells according to the procedure of Example 5. The test animals were divided into two groups.
(a) control (0.2 IP of 40% DMSO and 60% PBS)

## Cl[TeH]1(Cl)(Cl)OCCO1 [Example 1]
IL-2 [1]
  Spleen Cells (IL-2 activity): 14,600 cpm
IL-2 [1]; Mus musculus, read-out: Spleen Cells, percent in parentheses (increase over control)
  activation at 1 µg/mL: 472%
IL-2 [2]; 5 pg
  IL-2: 12,000 cpm
IL-2 [2]; 50 pg
  IL-2: 38,000 cpm
IL-2 [2]; 500 pg
  IL-2: 30,000 cpm
IL-2 [2]; 5 ng
  IL-2: 15,000 cpm
IL-2 [2]; 50 ng
  IL-2: 6,000 cpm
IL-2 [2]; 500 ng
  IL-2: 5,000 cpm
IL-2 [2]; 5 μg
  IL-2: 5,000 cpm
IL-2 [2]; 50 μg
  IL-2: 5,000 cpm
[3]; 10% glycerol/90% pbs
  solubility: 1000 µg/mL
[3]; 20% glycerol/80% pbs
  solubility: 1300 µg/mL
[3]; 40% glycerol/60% pbs
  solubility: 6000 µg/mL
Human mononuclear cells; first part of table, 1 × 10^-3 μg/ml
  proliferation of human mononuclear cells: 2553 and 2180
Human mononuclear cells; first part of table, 1 × 10^-4 μg/ml
  proliferation of human mononuclear cells: 3838 and 2387
Human mononuclear cells; first part of table, 1 × 10^-5 μg/ml
  proliferation of human mononuclear cells: 3218 and 2442
Human mononuclear cells; first part of table, 5 × 10^-1 μg/ml
  proliferation of human mononuclear cells: 18515 and 33700
Human mononuclear cells; second part of table, 1 μg/ml
  proliferation of human mononuclear cells: 6000 and 5600
Human mononuclear cells; second part of table, 5 μg/ml
  proliferation of human mononuclear cells: 5008 and 5182
Human mononuclear cells; second part of table, 1 × 10^-1 μg/ml
  proliferation of human mononuclear cells: 7037 and 10382
Human mononuclear cells; second part of table, 1 × 10^-2 μg/ml
  proliferation of human mononuclear cells: 6898 and 5712
Human mononuclear cells; second part of table, 1 × 10^-3 μg/ml
  proliferation of human mononuclear cells: 5800 and 6000
Human mononuclear cells; second part of table, 1 × 10^-4 μg/ml
  proliferation of human mononuclear cells: 5513 and 6212
Human mononuclear cells; second part of table, 5 × 10^-1 μg/ml
  proliferation of human mononuclear cells: 20488 and 13600
Human mononuclear cells; second part of table, 5 × 10^-2 μg/ml
  proliferation of human mononuclear cells: 5520 and 5765
WNV; 0.1 μg
  reduction of virus yield: ten
WNV; 0.1 μg/plate
  Virus Yield: 2 × 10^3 PFU/ml
WNV; 1 μg
  reduction of virus yield: 40 fold
WNV; μg/plate (text: 1 μg)
  Virus Yield: 5 × 10^2 PFU/ml
CSF; 5 pg
  CSF: 140 colonies/dish
CSF; 50 pg
  CSF: 260 colonies/dish
CSF; 500 pg
  CSF: 175 colonies/dish
CSF; 5 ng
  CSF: 120 colonies/dish
CSF; 50 ng
  CSF: 75 colonies/dish
CSF; 500 ng
  CSF: 25 colonies/dish
CSF; 5 μg
  CSF: 5 colonies/dish
CSF; 50 μg
  CSF: 2 colonies/dish
Fibrosarcoma cells; 10 μg IP, day 4 after innoculation
  % Survival: 100%
Fibrosarcoma cells; 10 μg IP, day 9
  % Survival: 100%
Fibrosarcoma cells; 10 μg IP, day 23
  % Survival: 100%
Fibrosarcoma cells; 10 μg IP, day 30
  % Survival: 100%
Fibrosarcoma cells; 10 μg IP, day 37
  % Survival: 100%
Fibrosarcoma cells; day 39, start of increased dosage regimen
  % Survival: 100%
Fibrosarcoma cells; day 41, increased dosage
  % Survival: 100%
Fibrosarcoma cells; day 43, increased dosage
  % Survival: 100%
Fibrosarcoma cells; day 46, increased dosage
  % Survival: 80%
Fibrosarcoma cells; day 48, increased dosage
  % Survival: 80%
Fibrosarcoma cells; day 50, increased dosage
  % Survival: 80%
Fibrosarcoma cells; day 53, increased dosage
  % Survival: 60%
Fibrosarcoma cells; day 60, increased dosage
  % Survival: 40%
Fibrosarcoma cells; day 67
  % Survival: 20%
Fibrosarcoma cells; day 68
  % Survival: 0%
Fibrosarcoma cells; group (b), until just after the increased dosage regimen (day 39)
  mortality: 0%
